Source: patent US20110166079A1, “METHODS OF TREATING CANCER WITH APOE PEPTIDES” (COGNOSCI, INC., priority 2008, published 2011)

Assays:
ERK, Akt, IκK and NFκB = assay: Immunoblotting of phospho- and total ERK, Akt, IκK and NFκB in B-CLL cells; assay type: cell-based, human; conditions: 2 μM COG112, 3 hours, relative to untreated cells
Excerpt: The results of the two previous series of experiments indicate that SET overexpression in CLL cells results in decreased PP2A activity which contributes to the persistence of an anti-apoptotic state in these cells. COG peptides, such as COG112, can induce apoptosis in CLL cells, which may occur through the binding of COG peptides to the SET protein, thereby relieving the suppression of PP2A activity. To further elucidate the mechanism of the cytotoxic effect of COG peptides on CLL cells, the effect of COG112 treatment on the phosphorylation state of key signal transduction proteins and PP2A activity in B-CLL cells is evaluated. […]
Immunoblotting is performed on the extracts from COG112 treated and untreated CLL cells to determine the relative levels of phospho-and total-(phosphorylated plus non-phosphorylated) ERK, Akt, IκK and NFκB. Specifically, cell extracts obtained by the method above will be analyzed to determine the protein concentration of each lysate using the BCA assay kit (Pierce). […] Protein bands are visualized and quantitated using an Odyssey Infrared scanner (LiCor). This method allows for simultaneous quantitation of the phospho-Akt using the emission of the 800 nm channel and of the total Akt using the emission of the 680 nm channel. Following the initial read, a rabbit anti-β-Actin antibody is incubated with the membrane for 1 hour and the membrane is washed. […]

[1] = tested on: BCR/Abl+ K562 CML cell line; assay: Growth of BCR/Abl+ K562 CML cells (trypan blue counting); assay type: cell-based
Protocol: Cells (20 mL) were seeded in a T-75 flask at a concentration of 0.25×10^6 cells/mL. Each day after seeding, 0.20 mL of cell suspension was removed and centrifuged to collect cells. The cell pellet was resuspended in 500 μL of serum free media and 100 μL of trypan blue stain was added and incubated for 5 minutes before counting the […] cells with a hemacytometer.

Eμ-TCL1 transgenic mice = assay: CLL in Eμ-TCL1 transgenic mice treated with COG112; assay type: in vivo, mouse
Excerpt: In the Eμ-TCL1 transgenic mouse model, the TCL1 gene is placed under control of a B-cell-specific IgVH promoter and IgH-Eμ enhancer. These mice develop normally into adulthood but later develop enlarged spleens, livers, and lymph nodes that are accompanied by high blood lymphocyte counts. The mice eventually die prematurely as the leukemic cells accumulate along with development of advanced lymphoadenopathy Importantly, the accumulated B-cells in these transgeneic TCL1 mice are G0-1 arrested and express CD19+/CD5+/IgM+ just as the human CLL cells (Bichi et al. (2002) Proc Natl Acad Sci USA, Vol. 99: 6955-6960). As further validation of these Eμ-TCL1 transgenic mice as an effective model of human CLL, CLL symptoms in the TCL1 transgenic mice improve following administration of fludarabine, a clinically used anti-CLL therapeutic. […] The effect of COG112 on CLL cell production and life expectancy in the Eμ-TCL1 transgenic mouse model of CLL is evaluated.
Animals (n=6) are treated with either 10 mg/kg of COG112 or a vehicle control daily by subcutaneous injection. After 15 days of treatment, blood is collected by retro-orbital bleeds and white bloods cells quantitated. White-blood cell counts are expected to be reduced in COG112-treated animals relative to the vehicle controls.
At the initiation of treatment, blood is drawn to determine baseline CD5+/CD19+ CLL cell counts and groups of animals (n=20) are treated with a vehicle control (lactated Ringer's solution) or COG112 at doses of 4.0, 1.0, or 0.25 mg/kg. COG112 or the vehicle control is delivered by intraperitoneal injection at a volume of 10 mL/kg. Animals receive injections daily Monday through Friday so that 5 doses are administered per week for 5 weeks (35 days of total treatment). Disease course is monitored by survival, total blood leukocyte and lymphocyte count, and CD19+/CD5+ cell count weekly.
Blood is collected from each mouse on a weekly basis by retro-orbital bleeds for determination of total blood leukocyte and lymphocyte counts as well as CD19+/CD5+ cell counts to assess the leukemia burden. After 5 weeks (35 days of treatment), mice are euthanized and the post treatment leukemia burden is measured by cell counting, spleen weight, and histological analysis of bone marrow, spleen, liver, and lymph nodes.

[2] = 4.0, 1.0 or 0.25 mg/kg intraperitoneal, 5 weeks, versus vehicle

With “Ac-RQIKIWFQNRRMKWKKCLRVRLASHLRKLRKRLL-NH2 (N-terminus and C-terminus assumed) [COG112]” the “quantity of phosphorylated proteins (ERK, Akt, IκK, NFκB)” value (ERK, Akt, IκK and NFκB) was “significant reduction”, the “K562 cell growth at reduced concentrations” value ([1]; 1 μM COG112, 75 nM Imatinib, alone or combined, FIG. 7B) was “suboptimal inhibition” and the K562 cell growth ([1]; dose response of COG112, Imatinib 1 μM positive control, FIG. 7A) was “dose dependent inhibition”. For the same substance, the white-blood cell counts (Eμ-TCL1 transgenic mice; 10 mg/kg daily subcutaneous, 15 days, relative to vehicle) was “reduced”, the “CD19+/CD5+ cell counts” value (Eμ-TCL1 transgenic mice; [2]) was “dose-dependent reduction” and the “CLL burden by histological analysis” value (Eμ-TCL1 transgenic mice; [2]) was “dose-dependent reduction”. The cumulative survival (Eμ-TCL1 transgenic mice; [2]) was “dose-dependent increase” and the spleen weight (Eμ-TCL1 transgenic mice; [2]) was “dose-dependent reduction”.
